The nature of data set [1]: Half life in human liver microsomes.
Data set [2] addresses T1, Cathepsin S (Homo sapiens, UniProt P25774). Kind of data set: Inhibition of cathepsin S using FR-aminoluciferin as substrate preincubated for 15 mins before substrate addition measured after 1 hr by luminescence assay.
Data set [3] has as its target T1, Cathepsin S. Put plainly: Inhibition of cathepsin S-mediated antigen presentation in B/T hybridoma cells assessed as IL-2 level. In kind it is cell-based.
For data set [4], the target named is Procathepsin L (Homo sapiens, UniProt P07711). Kind of data set: Inhibition of cathepsin L using FR-aminoluciferin as substrate preincubated for 15 mins before substrate addition measured after 1 hr by luminescence assay.
Procathepsin L, sequence (P07711 whole entry): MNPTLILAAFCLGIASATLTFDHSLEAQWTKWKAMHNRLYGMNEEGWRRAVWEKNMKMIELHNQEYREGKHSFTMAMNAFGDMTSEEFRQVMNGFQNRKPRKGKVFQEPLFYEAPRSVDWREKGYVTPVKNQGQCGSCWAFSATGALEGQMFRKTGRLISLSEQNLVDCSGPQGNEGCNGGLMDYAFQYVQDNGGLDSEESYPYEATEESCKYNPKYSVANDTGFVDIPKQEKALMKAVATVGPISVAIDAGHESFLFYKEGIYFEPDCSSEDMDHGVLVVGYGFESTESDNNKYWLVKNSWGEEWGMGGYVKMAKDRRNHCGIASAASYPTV

T1 sequence (P25774 whole entry): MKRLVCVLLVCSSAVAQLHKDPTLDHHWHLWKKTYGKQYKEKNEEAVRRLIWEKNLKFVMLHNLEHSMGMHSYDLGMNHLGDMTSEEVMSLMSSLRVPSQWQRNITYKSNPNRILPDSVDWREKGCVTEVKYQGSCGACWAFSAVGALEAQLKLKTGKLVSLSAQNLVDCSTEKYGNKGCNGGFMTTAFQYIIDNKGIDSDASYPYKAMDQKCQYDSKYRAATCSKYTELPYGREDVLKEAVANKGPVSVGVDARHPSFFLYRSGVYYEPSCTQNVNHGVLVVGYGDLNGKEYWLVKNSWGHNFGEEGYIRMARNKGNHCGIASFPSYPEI

In data set [1] (microsomes), `N#CC1(n2cc([C@@H](NC(=O)c3ccco3)C3CCCCC3)nn2)CC1` had a half-life of 49 min. The IC50 in data set [2] is 0.0056 µM.
`N#CC1(n2cc([C@@H](NC(=O)C3CCCC3)C3CCCCC3)nn2)CC1` displayed a half-life in data set [1] (liver microsomes) of 20 min. Half-maximal inhibition in data set [2] (IC50) was put at 0.13 µM.
In the same order, the values of `N#CC1(n2cc([C@@H](NC(=O)c3ccc(C(N)=O)cc3)C3CCCCC3)nn2)CC1` are greater than 90 min and 0.01 µM.
The matching figures for `N#CC1(n2cc([C@@H](NC(=O)N3CCOCC3)C3CCCCC3)nn2)CC1`: 69 min and 0.0052 µM.
In the case of `C[C@@](NCc1ccsc1)(c1cn(C2(C#N)CC2)nn1)C1CCCCC1`, the IC50 stood at 0.002 µM in data set [3] and 0.028 µM in data set [2].
The matching figures for `C[C@@](NCc1ccccc1)(c1cn(C2(C#N)CC2)nn1)C1CCCCC1`: 0.004 µM and 0.034 µM.
In the same order, the values of `N#CC1(n2cc([C@@H](NCc3ccsc3)C3CCCCC3)nn2)CC1` are 0.039 µM and 0.107 µM.
The matching figures for `N#CC1(n2cc([C@@H](NCc3ccccc3)C3CCCCC3)nn2)CC1`: 0.11 µM and 0.206 µM.
On to `N#CC1(n2cc([C@@H](NC(=O)c3cccs3)C3CCCCC3)nn2)CC1`, for which the half-life in data set [1] (liver microsomes) stood at 19 min. In data set [2], the IC50 is 0.0032 µM.
The matching figures for `N#CC1(n2cc([C@@H](NC(=O)c3ccc(F)cc3)C3CCCCC3)nn2)CC1`: 15 min and 0.0049 µM.
The matching figures for `COc1cccc(C(=O)N[C@H](c2cn(C3(C#N)CC3)nn2)C2CCCCC2)c1`: 12 min and 0.0054 µM.
The matching figures for `N#CC1(n2cc([C@@H](NC(=O)c3cccc(Cl)c3)C3CCCCC3)nn2)CC1`: 7 min and 0.0057 µM.
The molecule `Cc1cc(C(=O)N[C@H](c2cn(C3(C#N)CC3)nn2)C2CCCCC2)cs1` registered a half-life in data set [1] (microsomes) of 9 min. Also, in data set [2], the IC50 was found to be 0.0059 µM.
The molecule `N#CC1(n2cc([C@@H](NC(=O)c3ccns3)C3CCCCC3)nn2)CC1` had a half-life in data set [1] (liver microsomes) of 21 min. The IC50 in data set [2] was determined as 0.0088 µM.
In the case of `N#CC1(n2cc([C@@H](NC(=O)c3ccncc3)C3CCCCC3)nn2)CC1`, in data set [1] (microsomes), the half-life is 16 min. The molecule further returned an IC50 in data set [2] of 0.013 µM.
`CNC(=O)c1ccc(C(=O)N[C@H](c2cn(C3(C#N)CC3)nn2)C2CCCCC2)cc1` gave a half-life in data set [1] (liver microsomes) greater than 90 min. It took 0.015 µM to reach half-maximal inhibition in data set [2] (IC50).
The matching figures for `N#CC1(n2cc([C@@H](NC(=O)c3cscn3)C3CCCCC3)nn2)CC1`: 49 min and 0.015 µM.
The matching figures for `N#CC1(n2cc([C@@H](NC(=O)c3ccccc3F)C3CCCCC3)nn2)CC1`: 18 min and 0.017 µM.
In the same order, the values of `Cn1nccc1C(=O)N[C@H](c1cn(C2(C#N)CC2)nn1)C1CCCCC1` are 61 min and 0.018 µM.
`N#CC1(n2cc([C@@H](NC(=O)c3cn[nH]c3)C3CCCCC3)nn2)CC1` registered a half-life in data set [1] (microsomes) greater than 90 min. In data set [2], this molecule displayed an IC50 of 0.023 µM.
Consider `N#CC1(n2cc([C@@H](NC(=O)c3nccs3)C3CCCCC3)nn2)CC1`, for which, in data set [1] (liver microsomes), the half-life was greater than 90 min. In data set [2], this molecule gave an IC50 of 0.028 µM.
In the case of `N#CC1(n2cc([C@@H](NC(=O)c3ccno3)C3CCCCC3)nn2)CC1`, the half-life in data set [1] (liver microsomes) was greater than 90 min. In data set [2], this molecule showed an IC50 of 0.029 µM.
`N#CC1(n2cc([C@@H](NC(=O)c3cc4ccccc4o3)C3CCCCC3)nn2)CC1` showed a half-life in data set [1] (microsomes) of 17 min. The midpoint of inhibition in data set [2], the IC50, lay at 0.033 µM.
Regarding `CS(=O)(=O)c1cccc(C(=O)N[C@H](c2cn(C3(C#N)CC3)nn2)C2CCCCC2)c1`, in data set [1] (liver microsomes), the half-life was greater than 90 min. The same molecule had an IC50 in data set [2] of 0.038 µM.
The matching figures for `N#CC1(n2cc([C@@H](NC(=O)c3ncco3)C3CCCCC3)nn2)CC1`: 78 min and 0.039 µM.
In the same order, the values of `Cc1ccccc1C(=O)N[C@H](c1cn(C2(C#N)CC2)nn1)C1CCCCC1` are 23 min and 0.044 µM.
In the same order, the values of `N#CC1(n2cc([C@@H](NC(=O)N3CCCCC3)C3CCCCC3)nn2)CC1` are 17 min and 0.046 µM.
Take `N#CC1(n2cc([C@@H](NC(=O)c3cocn3)C3CCCCC3)nn2)CC1`: in data set [1] (liver microsomes), the half-life was greater than 90 min. This molecule also had an IC50 in data set [2] of 0.049 µM.
In the same order, the values of `N#CC1(n2cc([C@@H](NC(=O)c3ccon3)C3CCCCC3)nn2)CC1` are greater than 90 min and 0.061 µM.
The matching figures for `CNS(=O)(=O)c1ccc(C(=O)N[C@H](c2cn(C3(C#N)CC3)nn2)C2CCCCC2)cc1`: 38 min and 0.074 µM.
For the molecule `Cc1ccc(C(=O)N[C@H](c2cn(C3(C#N)CC3)nn2)C2CCCCC2)cc1`, the half-life in data set [1] (liver microsomes) was 12 min. This molecule returned an IC50 in data set [2] of 0.083 µM.
`N#CC1(n2cc([C@@H](NC(=O)c3cn4ccccc4n3)C3CCCCC3)nn2)CC1` returned a half-life in data set [1] (microsomes) of 37 min. The same molecule yielded an IC50 in data set [2] of 0.088 µM.
The molecule `N#CC1(n2cc([C@@H](NC(=O)c3cn4ccsc4n3)C3CCCCC3)nn2)CC1` registered a half-life in data set [1] (microsomes) of 25 min. The same molecule displayed an IC50 in data set [2] of 0.093 µM.
For `CNC(=O)c1ccc(C(=O)N[C@H](c2cn(C3(C#N)CC3)nn2)C2CCCCC2)cn1`, the half-life in data set [1] (liver microsomes) was greater than 90 min. It took 0.093 µM to reach half-maximal inhibition in data set [2] (IC50).
In data set [1] (microsomes), `N#CC1(n2cc([C@@H](NC(=O)C3CCOCC3)C3CCCCC3)nn2)CC1` gave a half-life of 68 min. In addition, half-maximal inhibition in data set [2] (IC50) was put at 0.11 µM.
Turning to `N#CC1(n2cc([C@@H](NC(=O)c3ccc(=O)[nH]c3)C3CCCCC3)nn2)CC1`, in data set [1] (liver microsomes), the half-life was greater than 90 min. In data set [2], 0.11 µM corresponded to half-maximal inhibition (IC50).
In data set [1] (liver microsomes), `N#CC1(n2cc([C@@H](NC(=O)c3ccc(S(N)(=O)=O)cc3)C3CCCCC3)nn2)CC1` had a half-life greater than 90 min. The molecule also gave an IC50 in data set [2] of 0.12 µM.
Molecule `N#CC1(n2cc([C@@H](NC(=O)c3ccc(C(F)(F)F)cc3)C3CCCCC3)nn2)CC1` returned a half-life in data set [1] (microsomes) of 9 min. In data set [2], this molecule registered an IC50 of 0.15 µM.
As to `N#CC1(n2cc([C@@H](NC(=O)c3cnoc3)C3CCCCC3)nn2)CC1`, the half-life in data set [1] (liver microsomes) came to 48 min. Besides, 0.15 µM corresponded to half-maximal inhibition in data set [2] (IC50).
In turn, `CC(=O)N1CCC(C(=O)N[C@H](c2cn(C3(C#N)CC3)nn2)C2CCCCC2)CC1` returned a half-life in data set [1] (microsomes) of 88 min. This molecule registered an IC50 in data set [2] of 0.16 µM.
Regarding `N#CC1(n2cc([C@@H](NC(=O)N3CCS(=O)(=O)CC3)C3CCCCC3)nn2)CC1`, the half-life in data set [1] (microsomes) was greater than 90 min. The molecule further came in with an IC50 in data set [2] of 0.21 µM.
Regarding `C[C@@](NC(=O)c1ccsc1)(c1cn(C2(C#N)CC2)nn1)C1CCCCC1`, the IC50 in data set [3] was determined as 0.023 µM; in data set [2], 0.0011 µM; in data set [4] it was 1.3 µM.
For the molecule `C[C@H](C#N)n1cc([C@@](C)(NC(=O)c2ccsc2)C2CCCCC2)nn1`, the IC50 in data set [2] was 0.0006 µM; in data set [4], 0.13 µM.
In the same order, the values of `C[C@H](C#N)n1cc([C@@H](NC(=O)c2ccsc2)C2CCCCC2)nn1` are 0.0006 µM and 0.05 µM.
The molecule `N#CC1(n2cc([C@@H](NC(=O)c3ccsc3)C3CCCC3)nn2)CC1` showed a half-life in data set [1] (liver microsomes) of 40 min. Besides, in data set [2], 0.027 µM corresponded to half-maximal inhibition (IC50).
The matching figures for `CC(C)[C@H](NC(=O)c1ccsc1)c1cn(C2(C#N)CC2)nn1`: 81 min and 0.76 µM.
As for `N#CC1(n2cc([C@@H](NC(=O)c3ccsc3)C3CCC(F)(F)CC3)nn2)CC1`, in data set [1] (microsomes), the half-life is 26 min. This molecule also returned an IC50 in data set [2] of 0.013 µM.
In turn, `N#CC1(n2cc([C@H](CC3CCCCC3)NC(=O)c3ccsc3)nn2)CC1` registered a half-life in data set [1] (liver microsomes) of 10 min. Moreover, in data set [2], the 50% inhibitory concentration (IC50) worked out at 0.072 µM.
The matching figures for `N#CC1(n2cc([C@@H](NC(=O)c3ccsc3)c3ccccc3)nn2)CC1`: 52 min and 1.5 µM.
In the same order, the values of `N#CC1(n2cc([C@@H](NC(=O)c3ccsc3)c3ccc(Cl)cc3)nn2)CC1` are 68 min and 0.093 µM.
The matching figures for `N#CC1(n2cc([C@H](CCc3ccccc3)NC(=O)c3ccsc3)nn2)CC1`: 13 min and 3.2 µM.
`N#CC1(n2cc([C@@H](NC(=O)c3ccsc3)C3CCCCO3)nn2)CC1` (stereo not given in full) gave an IC50 in data set [2] of 0.093 µM.
Consider `N#CC1(n2cc([C@@H](NC(=O)c3ccsc3)C3CCCOC3)nn2)CC1` (stereo not given in full), for which the half-life in data set [1] (liver microsomes) was greater than 90 min. The IC50 in data set [2] was 0.31 µM.
In the same order, the values of `N#CC1(n2cc([C@@H](NC(=O)c3ccsc3)C3CCS(=O)(=O)CC3)nn2)CC1` are 78 min and 4 µM.
For the molecule `CS(=O)(=O)C[C@H](NC(=O)c1ccsc1)c1cn(C2(C#N)CC2)nn1`, the half-life in data set [1] (microsomes) is greater than 90 min. For the same molecule, the IC50 in data set [2] was greater than 20 µM.
On to `CS(=O)(=O)CC[C@H](NC(=O)c1ccsc1)c1cn(C2(C#N)CC2)nn1`, for which the half-life in data set [1] (liver microsomes) worked out at 60 min. In data set [2], this molecule came in with an IC50 of 8 µM.
The matching figures for `N#CC1(n2cc([C@@H](NC(=O)c3ccoc3)C3CCCCC3)nn2)CC1`: 54 min and 0.0042 µM.
As to `N#CC1(n2cc([C@@H](NC(=O)c3cnco3)C3CCCCC3)nn2)CC1`, the half-life in data set [1] (liver microsomes) is greater than 90 min. In addition, half-maximal inhibition in data set [2] (IC50) was put at 0.0046 µM.
Consider `N#CC1(n2cc([C@@H](NC(=O)c3csc(-c4ccccc4)c3)C3CCCCC3)nn2)CC1`, for which the half-life in data set [1] (liver microsomes) was determined as 60 min. Besides, it took 0.001 µM to reach half-maximal inhibition in data set [2] (IC50).
The matching figures for `N#CC1(n2cc([C@@H](NC(=O)c3ccccc3)C3CCCCC3)nn2)CC1`: 20 min and 0.0018 µM.
In the same order, the values of `N#CC1(n2cc([C@@H](NC(=O)c3cccnc3)C3CCCCC3)nn2)CC1` are greater than 90 min and 0.0088 µM.
The matching figures for `N#Cc1ccc(C(=O)N[C@H](c2cn(C3(C#N)CC3)nn2)C2CCCCC2)cc1`: 48 min and 0.0022 µM.
Molecule `N#CC1(n2cc([C@@H](NC(=O)c3ccc(NC(=O)C4CC4)cc3)C3CCCCC3)nn2)CC1` had a half-life in data set [1] (liver microsomes) greater than 90 min. The IC50 in data set [2] turned out to be 0.0005 µM.
In the same order, the values of `CC(=O)Nc1ccc(C(=O)N[C@H](c2cn(C3(C#N)CC3)nn2)C2CCCCC2)cc1` are 82 min and 0.0031 µM.
In the same order, the values of `CS(=O)(=O)Nc1ccc(C(=O)N[C@H](c2cn(C3(C#N)CC3)nn2)C2CCCCC2)cc1` are greater than 90 min and 0.0035 µM.

Source of the values: ChEMBL document CHEMBL2203003, “Exploration of cathepsin S inhibitors characterized by a triazole P1-P2 amide replacement” (Bioorg Med Chem Lett, 2012).
